We go through 1 molecule from US20240385182A1, “MASKED FLUOROGENIC LIPID COMPOUNDS, LIPID PARTICLES COMPRISING THE SAME, AND METHODS OF USE THEREOF” (Rutgers, The State University of New Jersey, priority 2023, published 2024).

Data set [1] can be described thus: Photophysical characterization of probes and uncaged forms (relative fluorescence quantum yield, extinction coefficient, brightness). Type of data set: physicochemical. On the procedure: The pKa of TEG-TC was determined to be 7.1±0.1 using UV-Vis spectrophotometric measurements. Under the confocal imaging conditions (pH 7.5-8.5 with cell-free assays, pH 7.4 with cells), a substantial population of the 7-hydroxycoumarin should exist in its aryloxide form. The change in coumarin fluorogenicity was assessed upon uncaging the probes from the oxobutylphenyl carbonate by measuring the relative fluorescence quantum yield (ΦFrel) values (Table 2). Coumarin 343 was used as a standard, which has an absolute fluorescence quantum yield ([…]) of 0.63 in ethanol. The ΦFrel values of TEG-TC-ONOO^− (entry 1) and DPPC-TC-ONOO^− (entry 3) were measured as 0.08 and 0.09, respectively. […] The ΦFrel values for TEG-TC (entry 2) and DPPC-TC (entry 4), which were synthesized independently, were measured as 0.66 and 0.64, respectively.
Next, the impact of caging and uncaging of the coumarin or fluorescein moieties on their fluorogenicity was assessed by measuring the relative fluorescence quantum yield (ΦFrel) values (Table 3). Coumarin 343 was used as the standard for measuring ΦFrel of the triazole-coumarin compounds (TEG-TC-H2S, TEG-TC, DPPC-TC-H2S, and DPPC-TC) whereas fluorescein for the triazole-fluorescein compounds (TEG-TF-H2O2, TEG-TF, and DPPC-TF-H2O2, and DPPC-TF). Relative to coumarin 343, whose absolute fluorescence quantum yield (ΦF) is 0.63 in ethanol, ΦFrels of the H2S probes TEG-TC-H2S (entry 1) and DPPC-TC-H2S (entry 3) were determined to be 0.07 and 0.03, respectively.
The pKa of TEG-TC was previously found to be to be 7.1±0.1 using UV-Vis spectrophotometric measurements. Under the fluorescence activation assay conditions that are employed here (Tris 50 mM, pH 7.5), a substantial population of the coumarin moiety is expected to be in its aryloxide anion form. Relative to fluorescein, whose ΦF is 0.79 in ethanol, ΦFrel values of the H2O2 probes TEG-TF-H2O2 (entry 5) and DPPC-TF-H2O2 (entry 7) were determined to be 0.04 and 0.02, respectively.

The nature of data set [2]: Confocal imaging of H2O2-sensing giant vesicles. An excerpt:
FIGS. 14A-14B: giant vesicles (GVs) that can sense reductive (FIG. 14A) or oxidative (FIG. 14B) environments. Confocal images acquired for H2S-sensing GV at 405/475 nm (ex/em) (FIG. 14A) and H2O2 sensing GV at 490/520 nm (ex/em) (FIG. 14B). Lipid compositions of GVs: POPC, POPG, cholesterol, and DPPC-TC-H2S (48:21:30:1 molar ratio; FIG. 14A); and POPC, POPG, cholesterol, and DPPC-TF-H2O2 (48.5:21:30:0.5; FIG. 14B). To label vesicle membranes, Liss-Rhod PE dye (563/580 nm) was introduced to the lipid mixture at an insignificant molar ratio (0.1 mol %). Concentrations of RSS and ROS were set to 500 and 100 μM, respectively. Scale bar=5 μm.
The redox sensing abilities of giant vesicles (GVs) comprising DPPC-TC-H2S or DPPC-TF-H2O2 were investigated. In most biomimetic systems that rely on compartmentalization, physical membrane boundaries are comprised of phospholipids and cholesterol. These lipid self-assemblies have dimensional properties (1-30 μm in diameter) relevant to those of a mammalian plasma membrane (10-100 μm), display physical characteristics feasible for confocal fluorescence imaging, and are conveniently utilized for bottom-up construction of biomimetic protocells. […]
The vesicle size distribution was analyzed by dynamic light scattering (DLS), confirming the presence of GVs. […]

`CCCCCCCCCCCCCCCC(=O)OCC(COP(=O)([O-])OCC[N+](C)(C)Cc1cn(-c2ccc3c(c2)C(=O)OC32c3ccc(OC(=O)OCc4ccc(B5OC(C)(C)C(C)(C)O5)cc4)cc3Oc3cc(OC(=O)OCc4ccc(B5OC(C)(C)C(C)(C)O5)cc4)ccc32)nn1)OC(=O)CCCCCCCCCCCCCCC` (racemic) [DPPC-TF-H2O2]: in data set [1], the Emmax is 519.5 nm, the Exmax was found to be 495.2 nm and the “Ext. Coeff.” value amounted to 10685 M⁻¹ cm⁻¹. The “Relative Brightness” value in data set [1] (Table 3, brightness compared to that of DPPC-TF-H2O2) worked out at 1.0. In data set [1] (in M⁻¹·cm⁻¹ (unit assumed)), the Brightness amounted to 214. For the same molecule, the “Quantum Yield (relative fluorescence quantum yield ΦFrel)” value in data set [1] (standard fluorescein) is listed as 0.02. Moreover, the “GV fluorescence at the membrane” value in data set [2] (GVs with POPC, POPG, cholesterol, H2O2 (100 PM) over 90 min) was “substantial fluorescence increase”. Also, in data set [2] (equimolar other ROS (NO, ·OH, O2·^−)), the GV fluorescence intensities result is on record as “comparable to those for the untreated GVs”.
